Data: the NIST ThermoML archive (doi:10.1021/acs.jced.8b00199)
± gives the expanded uncertainty stated by the source.

Assay: molar heat capacity at constant pressure
Settings: Liquid, Flow calorimetry

CCCCCCCCCC(=O)OCC [ethyl decanoate]
Settings | molar heat capacity at constant pressure [J/K/mol]
294 K, 100 kPa | 400.39 ± 4
294 K, 3080 kPa | 399.98 ± 4
294 K, 6090 kPa | 399.53 ± 4
294 K, 8970 kPa | 399.07 ± 4
294 K, 12120 kPa | 398.72 ± 4
294.1 K, 14870 kPa | 398.28 ± 4
294.1 K, 17910 kPa | 397.82 ± 4
294.1 K, 21090 kPa | 397.38 ± 4
294.1 K, 24040 kPa | 396.93 ± 4
304 K, 130 kPa | 406.09 ± 4.1
304 K, 3030 kPa | 405.62 ± 4.1
304 K, 6160 kPa | 405.12 ± 4.1
304 K, 9030 kPa | 404.66 ± 4.1
304 K, 11950 kPa | 404.19 ± 4.1
304 K, 15090 kPa | 403.69 ± 4.1
304 K, 17870 kPa | 403.23 ± 4.1
304.1 K, 21100 kPa | 402.75 ± 4.1
304.1 K, 24050 kPa | 402.24 ± 4.1
313.9 K, 110 kPa | 411.45 ± 4.2
313.9 K, 2920 kPa | 410.92 ± 4.2
313.9 K, 5990 kPa | 410.45 ± 4.2
313.9 K, 9080 kPa | 409.95 ± 4.1
314 K, 11910 kPa | 409.43 ± 4.1
314 K, 15030 kPa | 408.93 ± 4.1
314 K, 18090 kPa | 408.41 ± 4.1
314 K, 21080 kPa | 407.89 ± 4.1
314 K, 24110 kPa | 407.34 ± 4.1
323.8 K, 150 kPa | 416.54 ± 4.2
323.9 K, 3040 kPa | 416.03 ± 4.2
323.9 K, 5930 kPa | 415.53 ± 4.2
323.9 K, 9070 kPa | 415.03 ± 4.2
323.9 K, 11980 kPa | 414.54 ± 4.2
323.9 K, 15050 kPa | 414.03 ± 4.2
324 K, 18050 kPa | 413.54 ± 4.2
324 K, 21210 kPa | 413.06 ± 4.2
324 K, 24030 kPa | 412.57 ± 4.2
333.8 K, 120 kPa | 423.19 ± 4.3
333.8 K, 2960 kPa | 422.7 ± 4.3
333.8 K, 5990 kPa | 422.28 ± 4.3
333.8 K, 9040 kPa | 421.77 ± 4.3
333.9 K, 12030 kPa | 421.17 ± 4.2
333.9 K, 14940 kPa | 420.66 ± 4.2
333.9 K, 18050 kPa | 420.15 ± 4.2
333.9 K, 21100 kPa | 419.65 ± 4.2
334 K, 24050 kPa | 419.11 ± 4.2
343.7 K, 150 kPa | 429.52 ± 4.3
343.7 K, 3000 kPa | 429.02 ± 4.3
343.7 K, 6190 kPa | 428.5 ± 4.3
343.8 K, 8990 kPa | 427.96 ± 4.3
343.8 K, 12100 kPa | 427.46 ± 4.3
343.8 K, 14910 kPa | 426.93 ± 4.3
343.8 K, 17990 kPa | 426.4 ± 4.3
343.8 K, 21010 kPa | 426.07 ± 4.3
343.9 K, 23970 kPa | 425.54 ± 4.3
353.7 K, 110 kPa | 435.96 ± 4.4
353.7 K, 2980 kPa | 435.41 ± 4.4
353.7 K, 6020 kPa | 434.91 ± 4.4
353.7 K, 8990 kPa | 434.4 ± 4.4
353.8 K, 11920 kPa | 433.87 ± 4.4
353.8 K, 14940 kPa | 433.36 ± 4.4
353.8 K, 17960 kPa | 432.85 ± 4.4
353.8 K, 21070 kPa | 432.33 ± 4.4
353.9 K, 23980 kPa | 431.81 ± 4.4

CCCCCCCC(=O)OCC [ethyl octanoate]
Settings | molar heat capacity at constant pressure [J/K/mol]
294 K, 160 kPa | 339.59 ± 3.4
294 K, 3020 kPa | 339.17 ± 3.4
294.1 K, 5960 kPa | 338.74 ± 3.4
294.1 K, 9040 kPa | 338.3 ± 3.4
294.1 K, 12020 kPa | 337.9 ± 3.4
294.1 K, 14980 kPa | 337.54 ± 3.4
294.1 K, 17990 kPa | 337.13 ± 3.4
294.1 K, 21060 kPa | 336.71 ± 3.4
294.1 K, 23980 kPa | 336.29 ± 3.4
303.7 K, 2940 kPa | 344.3 ± 3.5
303.7 K, 6070 kPa | 343.83 ± 3.5
303.8 K, 8950 kPa | 343.35 ± 3.5
303.8 K, 12020 kPa | 342.9 ± 3.5
303.9 K, 15040 kPa | 342.5 ± 3.5
304 K, 18130 kPa | 342.09 ± 3.5
304 K, 21050 kPa | 341.67 ± 3.5
304 K, 24030 kPa | 341.18 ± 3.5
305.6 K, 160 kPa | 344.76 ± 3.5
314.3 K, 170 kPa | 350.6 ± 3.5
314.3 K, 3140 kPa | 350.17 ± 3.5
314.3 K, 6130 kPa | 349.71 ± 3.5
314.4 K, 9110 kPa | 349.29 ± 3.5
314.4 K, 12100 kPa | 348.89 ± 3.5
314.4 K, 15030 kPa | 348.53 ± 3.5
314.5 K, 18310 kPa | 348.11 ± 3.5
314.5 K, 20910 kPa | 347.72 ± 3.5
314.5 K, 24100 kPa | 347.25 ± 3.5
323.8 K, 130 kPa | 355.82 ± 3.6
323.8 K, 3030 kPa | 355.4 ± 3.6
323.8 K, 6160 kPa | 354.96 ± 3.6
323.8 K, 21030 kPa | 352.89 ± 3.6
323.9 K, 9300 kPa | 354.54 ± 3.6
323.9 K, 12120 kPa | 354.09 ± 3.6
323.9 K, 15230 kPa | 353.71 ± 3.6
323.9 K, 18110 kPa | 353.28 ± 3.6
323.9 K, 24100 kPa | 352.47 ± 3.6
333.7 K, 110 kPa | 360.49 ± 3.6
333.7 K, 3060 kPa | 360.06 ± 3.6
333.7 K, 6010 kPa | 359.65 ± 3.6
333.8 K, 9110 kPa | 359.17 ± 3.6
333.8 K, 11920 kPa | 358.75 ± 3.6
333.8 K, 15070 kPa | 358.37 ± 3.6
333.8 K, 18080 kPa | 357.9 ± 3.6
333.9 K, 21120 kPa | 357.47 ± 3.6
333.9 K, 24000 kPa | 357.06 ± 3.6
343.5 K, 130 kPa | 365.32 ± 3.7
343.5 K, 2950 kPa | 364.93 ± 3.7
343.5 K, 6040 kPa | 364.48 ± 3.7
343.5 K, 8990 kPa | 364.02 ± 3.7
343.6 K, 12070 kPa | 363.6 ± 3.7
343.7 K, 15050 kPa | 363.15 ± 3.7
343.8 K, 18070 kPa | 362.7 ± 3.7
343.8 K, 21010 kPa | 362.3 ± 3.7
343.8 K, 24090 kPa | 361.84 ± 3.7
353.6 K, 130 kPa | 370.06 ± 3.7
353.6 K, 3030 kPa | 369.66 ± 3.7
353.6 K, 6060 kPa | 369.24 ± 3.7
353.7 K, 8990 kPa | 368.8 ± 3.7
353.7 K, 11900 kPa | 368.4 ± 3.7
353.8 K, 15040 kPa | 367.99 ± 3.7
353.9 K, 18020 kPa | 367.57 ± 3.7
354 K, 20960 kPa | 367.14 ± 3.7
354 K, 24110 kPa | 366.72 ± 3.7
